{
  "source": "patent US9428497B2",
  "about": "“Precursor compounds for the radiosynthesis of [18F] norchloro-fluorohomoepibatidine” (priority 2011, dated 2016)",
  "origin": "cited, not measured here",
  "key": {"[1]": {"conditions": "piglets; compared with 2-[18F]F-A-85380"}, "[2]": {"conditions": "mice; compared with 2-[18F]F-A-85380"}},
  "note": "Where two headings read alike, the source gives them in different places.",
  "data": [
    {"compound": "[18F]c1ccc(C2CC3CCCC2N3)cn1", "note": "(single isomer, unassigned; (-)) [(−)-[^18F]NCFHEB, (−)-[^18F]norchloro-fluoro-homoepibatidine]", "values": [
      {"measurement": "cerebral uptake relative to 2-[18F]F-A-85380", "setting": "[1]", "value": "more than two times higher"},
      {"measurement": "cerebral uptake relative to 2-[18F]F-A-85380", "setting": "[2]", "value": "more than two times higher"}
    ]}
  ]
}
